# From US20100273783A1, “Compositions and Methods for Treating and Preventing Overactive Bladder and Conditions Associated Therewith” (OPTMED, INC., priority 2009, published 2010)
# Read-outs that look alike come from different tables or passages of the source.
# How the values were obtained:
# [1] = molecular target: T1, M-1 receptors (Homo sapiens, UniProt P11229); conditions: cited from earlier work
# T1 sequence (P11229 1-460): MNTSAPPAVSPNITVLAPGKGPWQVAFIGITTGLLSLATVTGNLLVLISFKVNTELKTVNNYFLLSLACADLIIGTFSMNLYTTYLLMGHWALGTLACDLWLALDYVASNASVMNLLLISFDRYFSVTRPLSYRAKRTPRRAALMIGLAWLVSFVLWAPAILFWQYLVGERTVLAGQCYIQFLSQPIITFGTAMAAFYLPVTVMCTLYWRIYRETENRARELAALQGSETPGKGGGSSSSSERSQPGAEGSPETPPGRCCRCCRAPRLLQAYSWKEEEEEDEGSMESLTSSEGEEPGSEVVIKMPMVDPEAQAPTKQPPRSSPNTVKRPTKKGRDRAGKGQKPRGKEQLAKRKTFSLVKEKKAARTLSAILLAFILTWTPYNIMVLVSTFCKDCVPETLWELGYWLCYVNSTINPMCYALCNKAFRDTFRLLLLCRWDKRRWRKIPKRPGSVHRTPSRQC
# [2] = cited from earlier work; for adverse effects stated in the background text: no dose given
# [3] = tested on: overactive bladder (OAB); test: Case reports of subjects with OAB treated with local diazepam; type: in vivo, human
# Procedure: A person had been suffering from symptoms consistent with OAB for several months. Following a confirmatory diagnosis of OAB, the subject was instructed to use vaginal suppositories containing 20 mg of diazepam in a glycerine base three times a day. […] The subject continues to do well on a maintenance dose of 20 mg once or twice a day.
# A person had been suffering from symptoms consistent with OAB for several months. A diagnosis of OAB was confirmed by an urologist. A nurse then administered intraurethrally to the subject 2 ml of a gel formulation containing 10 mg/ml of diazepam in 2% methylcellulose, providing a total dose of 20 mg of diazepam. […] This subject is able to treat themself at home using the same type of formulation and the same route of administration up to 3 times per day as needed.
# His symptoms were not relieved with high doses of oral diazepam but were well-controlled by intraurethral instillations of 2 ml of diazepam in a gel formulation containing 10 mg/ml of diazepam in hydroethylcellulose, providing a total of 20 mg of diazepam administered at bedtime.
# A person with advanced dementia suffered from OAB symptoms including nocturia and urge incontinence. Despite the use of incontinence pads, the subject would frequently arise throughout the night without requesting assistance to go the bathroom. This led to numerous falls.
# [4] = tested on: anesthetized rats; test: Cystometries (isovolumetric bladder contractions) in anesthetized rats; type: in vivo
# Procedure: Effect of diazepam administered intravenously and intravaginally on cystometries in anesthetized rats.
# Methods: Female rats were anesthetized with urethane (1.3 g/kg intraperitoneally) given as a divided dose of 80% initially and 20% 15 minutes later. Body temperature was maintained at 37±2° C. throughout the experiment. A catheter was inserted into the bladder through the urethra. Then, the urethra was ligated at the level of the urinary meatus. After an abdominal incision, the ureters were also ligated. The jugular vein was catheterized to allow administration of test compounds. The bladder catheter was connected via a T-tube to a strain gauge to measure intravesicular pressure. Isovolumetric bladder contractions were induced by stepwise injections of physiological saline at room temperature (100 μl every 5 min) until stable rhythmic bladder contractions occurred. After stabilization and a control period of at least 30 min, characterized by stable and reproducible bladder contractions (used as basal values), test substance or vehicle was administered i.v. (as a bolus under a volume of 200 μl) or i.vag. (under a volume of 100 μl using a syringe). The drug effects were evaluated for 1 hour following the end of administration. Each animal received one dose of one test substance.
# [5] = in vivo; cited from earlier work
# [6] = Example 6, intraurethral 1 ml gel 20 mg/ml in 3% hydroxyethylcellulose three times per day
# [7] = intravaginal, vs basal values, through 30 minutes post administration
compound,measurement,setting,value
NC(=O)C(c1ccccc1)(c1ccccc1)[C@@H]1CCN(CCc2ccc3c(c2)CCO3)C1 [darifenacin],affinity for M-1 receptors,[1],reduced affinity for M-1 receptors
same,Adverse Events,"[2]; 7.5 mg per day, constipation",constipation
same,Adverse Events,"[2]; 7.5 mg per day, dry mouth",dry mouth
same,Adverse Events,"[2]; 15 mg per day, constipation",constipation
same,Adverse Events,"[2]; 15 mg per day, dry mouth",dry mouth
same,Adverse Events,"[2]; 15 mg per day, dyspepsia",dyspepsia
"CN1C(=O)CN=C(c2ccccc2)c2cc(Cl)ccc21 [diazepam, 7-chloro-1,3-dihydro-1-methyl-5-phenyl-2H-1,4-benzodiazepin-2-one]","symptoms of urgency, frequency and incontinence","[3]; Example 3, person, vaginal suppositories 20 mg in glycerine base three times a day",greatly reduced
same,cognitive impairment,"[3]; Example 3, vaginal suppositories 20 mg in glycerine base three times a day",No cognitive impairment was observed or reported
same,cognitive impairment,"[3]; Example 4, intraurethral 2 ml gel 10 mg/ml in 2% methylcellulose (20 mg)",without causing any observable cognitive impairment
same,OAB symptoms,"[3]; Example 4, person, intraurethral 2 ml gel 10 mg/ml in 2% methylcellulose (20 mg)",reduced OAB symptoms significantly
same,adverse effects,"[3]; Example 5, intraurethral 2 ml gel 10 mg/ml (20 mg) at bedtime",did not suffer any adverse effects
same,"symptoms (nocturia, nighttime urinary incontinence)","[3]; Example 5, intraurethral 2 ml gel 10 mg/ml in hydroethylcellulose (20 mg) at bedtime",well-controlled
same,"symptoms (nocturia, nighttime urinary incontinence)","[3]; Example 5, person, high doses of oral diazepam",not relieved
same,adverse effects,[3]; [6],no apparent adverse effects
same,cognitive impairment,[3]; [6],without causing cognitive impairment
same,daytime urgency,[3]; [6],reduced daytime urgency
same,nighttime falls,[3]; [6],near-absence of nighttime falls
same,nocturia (sleep through the night),[3]; [6],able to sleep in bed throughout the night without arising to urinate
same,cognitive impairments,"[3]; Example 6, person, oral antimuscarinic and oral diazepam",led to cognitive impairments which increased the number of falls from bed
same,"reductions in micturition frequency and amplitude, intravaginal compared with intravenous",[4]; intravaginal vs intravenous administration,comparable to those achieved by intraveneous administration
same,micturition amplitude (threshold for voiding),[4]; [7],significant reductions
same,micturition frequency,[4]; [7],significant reductions
CC(C)C(=O)Oc1ccc(CO)cc1[C@H](CCN(C(C)C)C(C)C)c1ccccc1 [fesoterodine],Adverse Events,"[2]; 4 mg or 8 mg QD, constipation",constipation
same,Adverse Events,"[2]; 4 mg or 8 mg QD, dry mouth",dry mouth
same,Adverse Events,"[2]; 4 mg or 8 mg QD, urinary tract infection",urinary tract infection
same,adverse effects stated in the background text,[2],"associated with constipation, dry mouth and sometimes urinary tract infection"
CCN(CC)CC#CCOC(=O)C(O)(c1ccccc1)C1CCCCC1 (stereo not drawn) [oxybutynin chloride],Adverse Events,"[2]; 3.9 mg transdermal per day, dry mouth",dry mouth
same,Adverse Events,"[2]; 3.9 mg transdermal per day, erythema",erythema
same,Adverse Events,"[2]; 3.9 mg transdermal per day, pruritis",pruritis
same,adverse effects stated in the background text,[2],highly associated with adverse cognitive effects and effects on sleep architecture and quality
O=C(O[C@H]1C[C@H]2CC[C@@H](C1)[N+]21CCCC1)C(O)(c1ccccc1)c1ccccc1 [trospium chloride],Adverse Events,"[2]; 20 mg × 2 per day, constipation",constipation
same,Adverse Events,"[2]; 20 mg × 2 per day, dry mouth",dry mouth
same,fraction excreted completely active,[5],60%
